The test deals with human bronchial epithelial cells, CFTR corrector, plate reader. In words: CFTR ΔF508 corrector activity in bronchial cells, dose response, human bronchial epithelial cells, plate reader, cherry-pick, two tests (AID 743267).
Setting [1] is: measured here: test 2 replicate run.
[2] abbreviates: measured here: test 1 replicate run.

For 66 molecules, AC50 results are on record in PubChem BioAssay AID743267 (Broad Institute, 2014).

Molecules are shown by their SMILES.

As a reminder, the AC50 is the concentration at which the activity in the assay is half-maximal. In turn, `O=C1c2ccccc2C(=O)c2c1cccc2N(CCO)CCO` came in with an AC50 under setting [1] greater than 50 µM. Still for that read-out and setting: the result for `O=c1c(O)c(-c2cccs2)oc2ccc(Cl)cc12` reads 6.12 µM; that for `CN(C)CCNc1ccc2ncn3c4ccc(O)cc4c(=O)c1c23`, 2.03 µM. With `COc1ccc(NCC(=O)n2c(C)c(C)c3ccccc32)cc1`, the AC50 under setting [1] turned out to be 5.59 µM. On the same count and under the same terms, the result for `Fc1ccc(/C=N/NC(=S)Nc2ccc(Cl)cc2Cl)cc1` reads 32.2 µM; that for `CC[N+]1(CC)CC2=Cc3ccccc3CC2C1` (stereo unspecified), 27.8 µM; that for `Cc1cc(C(=O)N/N=C/c2ccc([N+](=O)[O-])cc2)c2ccccc2n1`, 3.96 µM. Under setting [1], `Cc1cccc(Nc2nc(N)nc(-c3oc4ccccc4c3C)n2)c1` returned an AC50 of 6.65 µM. Compared with the last molecule, the AC50 is about 1.7-fold higher. On the same count and under the same terms, under `Cc1cc2c(cc1C)C(c1ccccc1OC(C)C)CC(=O)N2` (stereo unspecified) stands 1.85 µM; under `CC(=O)O[C@H]1C(=O)[C@@]2(C)C([C@H](OC(=O)c3ccccc3)[C@]3(O)C[C@H](OC(=O)[C@H](O)[C@@H](NC(=O)c4ccccc4)c4ccccc4)C(C)=C1C3(C)C)[C@]1(OC(C)=O)CO[C@@H]1C[C@H]2O` (stereo partly specified), 5.6 µM. On the same count and under the same terms, under `COc1ccc(C(=O)c2cc(OC)c(OC)c(OC)c2)cc1OC` stands 2.72 µM. As to `C[C@@H]1CN([C@@H](C)CO)C(=O)Cc2cc(NC(=O)Nc3cccc4ccccc34)ccc2O[C@@H]1CN(C)Cc1ccc(Cl)c(Cl)c1`, the AC50 under setting [2] was determined as 2.12 µM. Regarding `Fc1ccccc1/C=N/NC(=S)Nc1ccc(Cl)cc1Cl`, the AC50 under setting [1] was found to be 1.62 µM. Same read-out and setting: under `COc1cc(OC)cc(C(=O)N[C@H](C(=O)Nc2nc3ccccc3[nH]2)C(C)C)c1` stands 2.34 µM; under `Cn1cccc1/C=C1\SC(=Nc2cccc(O)c2)NC1=O`, 13.5 µM.

The molecule `C[C@@H]1CN([C@H](C)CO)S(=O)(=O)c2ccc(-c3ccccc3)cc2O[C@H]1CN(C)Cc1ccccn1` registered an AC50 under setting [2] of 16 µM. This counts as double-digit micromolar. `N=c1sccn1CC(=O)Nc1ccc(S(N)(=O)=O)cc1`: the AC50 under setting [1] worked out at 14.9 µM. Same read-out and setting: the result for `COc1cc(C#Cc2ccc3cc(CCCO)oc(=O)c3c2)cc(OC)c1` reads 10.3 µM. Consider `Cc1ccc(-c2cccc(CN3CCN(C(C)C)C(CCO)C3)c2)o1` (stereo unspecified), for which the AC50 under setting [1] is greater than 50 µM. Take `COc1ccc(NC(=O)C(=O)NCC2CCCN2S(=O)(=O)c2cccs2)cc1` (stereo unspecified): the AC50 under setting [1] came out at 3.63 µM. This counts as single-digit micromolar. Same read-out and setting: the result for `Cc1ccc(OCCNC(=O)c2cccc(S(=O)(=O)NCc3ccccc3)c2)cc1` reads 1.64 µM.

Molecule `COc1ccc(-c2ccc(OC)c(OC)c2OC)cc1` yielded an AC50 under setting [1] of 3.92 µM. On the same count and under the same terms, the result for `COc1ccc([C@H]2CC(=O)C=C(c3ccc(OC)cc3OC)C2)cc1` reads 0.681 µM; that for `O=C1C=CN(C2OC(CO)C(O)C2O)C(=O)C1` (stereo unspecified), greater than 50 µM; that for `COc1ccccc1NC(=O)C(=O)NCC(c1ccco1)N1CCc2ccccc21` (stereo unspecified), greater than 50 µM. Same read-out and setting: under `COc1ccccc1Nc1nc(-c2sc(NC(=O)C(C)(C)C)nc2C)cs1` stands 3.84 µM; under `CCc1ccc(-c2nc(C(N)=O)c3[nH]c(=O)n(-c4ccccc4OC)c3n2)cc1`, 1.33 µM. Same read-out and setting: the result for `O=C(Nc1cccc(C2=NCCN2)c1)Nc1cccc(C2=NCCN2)c1` reads 20.7 µM. On to `C#C[C@]1(O)CC[C@H]2[C@@H]3CCc4cc(OC)ccc4[C@H]3CC[C@@]21C`, for which, under setting [1], the AC50 amounted to 2.48 µM. Regarding `COc1ccc(OC)c(-c2cc(-c3cccnc3)nc(N)c2C#N)c1`, under setting [1], the AC50 amounted to 2.43 µM. Still for that read-out and setting: under `O=C1c2cccc(NCCCNCCO)c2C(=O)c2cccc(NCCCNCCO)c21` stands 16 µM. The same measure, in the same setting: the result for `COc1cc(C2CC(=O)N(c3ccc(C)cc3)C(=O)C2)cc(OC)c1OC` reads 2.37 µM. For `O=C(C1CCCC1)N1CC(=O)N2[C@H](CO)[C@@H](c3ccc(-c4ccccc4F)cc3)[C@@H]2C1`, the AC50 under setting [2] came out at 4.47 µM. On to `Nc1[nH]nc2ncc3cc4ccccc4nc3c12`, for which the AC50 under setting [1] was found to be 17.7 µM.

Regarding `O=c1cc(-c2ccc(O)c(O)c2)oc2cc(O)cc(O)c12`, the AC50 under setting [1] is 29.3 µM. The same measure, in the same setting: the result for `O=C(Nc1ccc(Cl)cn1)c1cccc2ccccc12` reads 8.46 µM. On the same count and under the same terms, the result for `COc1ccc(S(=O)(=O)Nc2cccc3ccc(O)cc23)cc1` reads 6.82 µM.

Under setting [1], `C=CCN1C(=O)/C(=C/C=C2/N(CC)c3ccc(S(=O)(=O)N(C)C)cc3N2CC)SC1=S` showed a half-maximal activity concentration (AC50) of 3.35 µM. Same read-out and setting: under `O=C(c1cccc(S(=O)(=O)N2CCN(c3ccc(F)cc3)CC2)c1)N1CCCC(C(F)(F)F)C1` (stereo unspecified) stands 16 µM. In turn, `COc1ccc(S(=O)(=O)N2CC[C@@H]3[C@H](CO)N(C)c4ccc(-c5ccc(F)cc5)cc4[C@@H]32)cc1` yielded a half-maximal activity concentration (AC50) under setting [2] of 16 µM. Molecule `COc1ccccc1Cc1c(-c2ccc(Cl)cc2)nc2ccc(Br)cn12` came in with a half-maximal activity concentration (AC50) under setting [1] of 8.16 µM. This lies in the single-digit micromolar range. The same measure, in the same setting: under `Cc1ccnc(N2C(=O)c3cccc4c([N+](=O)[O-])ccc(c34)C2=O)c1` stands 6.5 µM.

For the molecule `NS(=O)(=O)c1ccc(S(=O)(=O)N(CCc2ccccc2)Cc2ccccn2)cc1`, the AC50 under setting [1] is less than 0.0235 µM. On the same count and under the same terms, the result for `CCOC(=O)/C(=C/C=C1\Sc2cc(C)c(C)cc2N1CC)C(C)=O` reads 13.6 µM; that for `Cc1nc(NCc2cccnc2)c2c3c(sc2n1)CCCC3`, 7.38 µM.

In turn, `O=C(CSC1=NNC(c2ccccn2)S1)Nc1ccccc1` (stereo unspecified) came in with an AC50 under setting [1] greater than 50 µM. Same read-out and setting: under `Cc1ccc(C2NC(=O)c3ccccc3N2)c(C)c1` (stereo unspecified) stands 5.08 µM; under `O=C1OCC2=C1C(c1ccc3c(c1)OCO3)c1cc3c(cc1O2)OCO3` (stereo unspecified), 2.12 µM. Same read-out and setting: under `O=C1NC(=Nc2ccc(O)cc2)S/C1=C/c1ccco1` stands 4.91 µM; under `Cc1c(C(=O)N/N=C/c2c(O)ccc3ccccc23)nnn1-c1nonc1N`, 0.462 µM. The same measure, in the same setting: the result for `CCOC(=O)N1CCN(S(=O)(=O)c2ccc3c(c2)C(C)C(=O)N3)CC1` (stereo unspecified) reads greater than 50 µM; that for `COc1cc(/C=C2\SC(=Nc3ccc(Cl)c(C(=O)O)c3)NC2=O)c(Br)c(Br)c1O`, 6.66 µM; that for `CC/C=C/CC(=O)N[C@@H](c1ccccc1)[C@@H](O)C(=O)O[C@H]1C[C@@]2(O)[C@@H](OC(=O)c3ccccc3)C3[C@](C)(C(=O)[C@H](OC(C)=O)C(=C1C)C2(C)C)[C@@H](O)C[C@H]1OC[C@@]31OC(C)=O` (stereo partly specified), 3.4 µM. Take `Cc1cccc(N2CCN(S(=O)(=O)c3cc(-c4cc(C)no4)ccc3C)CC2C)c1` (stereo unspecified): the AC50 under setting [1] turned out to be 2.57 µM. The AC50 values of the last two molecules are within 1.5-fold of each other. On the same count and under the same terms, under `Cc1cccc(N(C)C(=O)c2cc3c(=O)[nH]c4ccc(C)cc4c3s2)c1` stands 4.72 µM. Still for that read-out and setting: the result for `COc1cc(C(=O)OCCc2cc3ccccc3c(=O)o2)cc(OC)c1OC` reads 1.59 µM; that for `COc1ccc(/C(C)=N/NC(=O)c2cccc(S(=O)(=O)N3CCCC3)c2)c(O)c1`, greater than 50 µM; that for `CCCn1c(CN2CCN(C(=O)OCC)CC2)nc2cc(NC(=O)CC)ccc21`, 4.34 µM. Molecule `CCCCN1C(=O)/C(=C/C=C2\Oc3ccccc3N2CC)SC1=S` displayed an AC50 under setting [1] of 9.56 µM. This AC50 lies about 2.2-fold higher than the previous one. Under setting [1], `COc1ccc(S(=O)(=O)N2CCN(CCOc3ccccc3Cl)CC2)cc1OC` showed an AC50 of 38.7 µM. As for `CCN1/C(=C/c2ccc3cc(C)cc(C)c3[n+]2CC)Sc2cc(C)ccc21`, under setting [1], the AC50 turned out to be 12.4 µM. On the same count and under the same terms, under `CCCCn1cnc2c(c(CC#N)nn2-c2ccccc2)c1=N` stands greater than 50 µM; under `CCN(CC)CCCNc1ccc2ncn3c4ccc(O)cc4c(=O)c1c23`, 1.8 µM; under `Oc1cccc(/C=N/Nc2ccc(Cl)nn2)c1O`, 16 µM. For `COc1ccc(Cl)cc1NC(=O)CN(C)CC(=O)Nc1cc(OC)c(OC)c(OC)c1`, the concentration at half-maximal activity (AC50) under setting [1] was 8.47 µM. Against the preceding molecule, the AC50 is about 1.9-fold lower.

The molecule `c1ccc(CCNc2nc(-c3ccccn3)nc3ccccc23)cc1` gave an AC50 under setting [1] of 2.77 µM.
